Our source for the IC50 values is patent US20240174690A1, “ANNULATED 2-AMINO-3-CYANO THIOPHENES AND DERIVATIVES FOR THE TREATMENT OF CANCER” (BOEHRINGER INGELHEIM INTERNATIONAL GMBH, priority 2021, published 2024).

One assay concerns the target KRAS (G13D)::SOS1 (Homo sapiens (Human), UniProt P01116, C118S/G13D). Put plainly: KRAS::SOS1 AlphaScreen binding assay, KRAS G13D. The text has this:
(§1) This assay can be used to examine the potency with which compounds according to the invention binding to (mutated) KRAS inhibit the protein-protein interaction between SOS1 and (mutated) KRAS e.g., KRAS WT, KRAS G12C, KRAS G12D, KRAS G12V, KRAS G13D. […] Low IC50 values in this assay setting are indicative of strong inhibition of protein-protein interaction between SOS1 and KRAS:
(§2) These assays measure the inhibitory effect of compounds on KRAS mutant protein-protein interactions using the Alpha Screen technology by Perkin Elmer.
(§3) The following (mutant) enzyme forms of KRAS and interacting proteins are used in these assays at the given concentrations: • KRAS (G12D) 1-169, N-terminal 6His-tag, C-terminal avi-tag (Xtal BioStructures, Inc.); final assay concentration 10 nM and SOS1 564-1049, N-terminal 229 GST-tag, TEV cleavage site (Viva Biotech Ltd); final assay concentration 5 nM; • KRAS (G12C) 1-169, N-terminal 6His-tag for purification, cleaved off, C-terminal avi-tag, biotinylated, mutations: C51S, C80L, C118S (in house); final assay concentration 7.5 nM and SOS1 564-1049, N-terminal 229 GST-tag, TEV cleavage site (Viva Biotech Ltd); final assay concentration 5 nM; • KRAS (G12V) 1-169, N-terminal 6His-tag for purification, cleaved off, C-terminal avi-tag, biotinylated, TEV cleavage site, mutation: C118S, GDP loaded (in house); final assay concentration 10 nM and SOS1 564-1049, N-terminal 229 GST-tag, TEV cleavage site (Viva Biotech Ltd); final assay concentration 10 nM; • KRAS (G13D) 1-169, N-terminal 6His-tag for purification, cleaved off, C-terminal avi-tag, biotinylated, TEV cleavage site, mutation: C118S, GDP loaded (in house); final assay concentration 10 nM and SOS1 564-1049, N-terminal 229 GST-tag, TEV cleavage site (Viva Biotech Ltd); final assay concentration 10 nM; • KRAS (WT) 1-169, N-terminal 6His-tag for purification, cleaved off, C-terminal avi-tag, biotinylated, TEV cleavage site, mutation: C118S, GDP loaded (in house); final assay concentration 10 nM and SOS1 564-1049, N-terminal 229 GST-tag, TEV cleavage site (Viva Biotech Ltd); final assay concentration 10 nM.
(§4) Test compounds dissolved in DMSO are dispensed onto assay plates (Proxiplate 384 PLUS, white, PerkinElmer; 6008289) using an Access Labcyte Workstation with the Labcyte Echo 55×. For the chosen highest assay concentration of 100 μM, 150 nL of compound solution are transferred from a 10 mM DMSO compound stock solution. A series of eleven fivefold dilutions per compound are transferred to the assay plate, compound dilutions are tested in duplicates. DMSO are added as backfill to a total volume of 150 nL.
(§5) The assays run on a fully automated robotic system in a darkened room below 100 Lux. To 150 nl of compound dilution 10 μl of a mix including KRAS mutant protein, SOS1 (final assay concentrations see above) and GDP nucleotide (Sigma G7127; final assay concentration 10 μM) in assay buffer (1×PBS, 0.1% BSA, 0.05% Tween 20) are added into columns 1-24.
(§6) After 30 minutes incubation time 5 μl of Alpha Screen bead mix in assay buffer are added into columns 1-23. Bead mix consists of AlphaLISA Glutathione Acceptor Beads (PerkinElmer, Cat No AL109) and AlphaScreen Streptavidin Donor Beads (PerkinElmer Cat No 6760002) in assay buffer at a final assay concentration of 10 μg/ml each.
(§7) Plates are kept at room temperature in a darkened incubator. After an additional 60 minutes incubation time the signal is measured in a PerkinElmer Envision HTS Multilabel Reader using the AlphaScreen specs from PerkinElmer.
(§8) Each plate contains up to 16 wells of a negative control depending on the dilution procedure (platewise or serial) (DMSO instead of test compound; with KRAS mutant::SOS1 GDP mix and bead mix; column 23) and 16 wells of a positive control (DMSO instead of test compound; with KRAS mutant::SOS1 GDP mix w/o bead mix; column 24).
(§9) As internal control known inhibitors of KRAS mutant::SOS1 interaction can be measured on each compound plate. […]

A further assay concerns the target KRAS (G12V)::SOS1 (Homo sapiens (Human), UniProt P01116, C118S/G12V). Description: KRAS::SOS1 AlphaScreen binding assay, KRAS G12V.
Source text: as §1, §2, §3, §4, §5, §6, §7, §8, §9

Another assay has as its system A375 cells. Description: A375 CTG proliferation assay (120 h) (melanoma, wt, B-Raf mutant, negative control). It is filed as cell-based. The note with it: Homo sapiens, A-375, CTG 120 h. Here is the method:
A375 CTG Proliferation Assay (120 h) (Melanoma, Wt, B-Raf Mutant, Negative Control)
A375 cells (ATCC CRL-1619) are dispensed into 384-well plates, flat and clear bottom (Greiner, PNr. 781091) at a density of 300 cells per well in 60 μL DMEM (Sigma 06429)+10% Fetal Calf Serum (HyClone, PNr.: SH30084.03) and incubated at 37° C. in a CO2 incubator overnight. The next day, compounds (10 mM stock in DMSO) are added at logarithmic dose series using the HP Digital Dispenser D300 (Tecan), including DMSO controls. Plates are incubated for 120 h, and cell viability is measured using CellTiter-Glo luminescent cell viability reagent (Promega product code G7570). Viability (stated as percent of control) is defined as relative luminescence units RLU of each well divided by the RLU of cells in DMSO controls. IC50 values are determined from viability measurements by non-linear regression using a four-parameter model.

KRAS (G13D)::SOS1, sequence (P01116 other isoform, or with tags, fused parts or gaps G13D/C118S): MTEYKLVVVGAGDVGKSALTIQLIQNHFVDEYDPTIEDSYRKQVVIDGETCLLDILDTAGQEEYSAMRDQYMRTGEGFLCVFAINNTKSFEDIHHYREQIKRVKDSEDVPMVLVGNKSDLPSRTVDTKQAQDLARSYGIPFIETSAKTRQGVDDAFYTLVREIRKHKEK
KRAS (G12V)::SOS1, sequence (P01116 other isoform, or with tags, fused parts or gaps G12V/C118S): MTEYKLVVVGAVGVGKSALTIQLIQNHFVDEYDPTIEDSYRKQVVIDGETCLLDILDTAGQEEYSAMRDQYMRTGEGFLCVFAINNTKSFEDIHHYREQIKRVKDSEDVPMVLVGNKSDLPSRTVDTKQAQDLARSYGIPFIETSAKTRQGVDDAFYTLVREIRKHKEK

As for `CC(C)NC(=O)Cc1ccn(-c2cc(O[C@@H](C)[C@@H]3CCCN3C)nc(-c3noc4c3CCC[C@@]43CCCc4sc(N)c(C#N)c43)n2)n1` [II-182], the IC50 on KRAS (G13D)::SOS1 stood at 8 nM. Regarding `C[C@H](Oc1cc(N2CCN(C)C3(CC3)C2)nc(-c2noc3c2CCC[C@@]32CCCc3sc(N)c(C#N)c32)n1)[C@@H]1CCCN1C` [II-171], the concentration for half-maximal inhibition (IC50) on KRAS (G13D)::SOS1 was 64 nM; on KRAS (G12V)::SOS1 it was 50 nM. The molecule `CO[C@H]1CCN(C)[C@@H]1[C@H](C)Oc1cc(-n2ccc(C(N)=O)n2)nc(-c2noc3c2CCC[C@@]32CCCc3sc(N)c(C#N)c32)n1` [II-201] had an IC50 at KRAS (G13D)::SOS1 of 27 nM. That is a double-digit nanomolar value. On to `CO[C@H]1CCN(C)[C@@H]1[C@H](C)Oc1cc(N2CCNC3(CC3)C2)nc(-c2noc3c2CCC[C@@]32CCCc3sc(N)c(C#N)c32)n1` [II-184], for which the IC50 at KRAS (G12V)::SOS1 turned out to be 2 nM. As to `C[C@H](Oc1cc(-n2ccc(-c3cn(C4CCOCC4)nn3)n2)nc(-c2noc3c2CCC[C@@]32CCCc3sc(N)c(C#N)c32)n1)[C@@H]1CCCN1C` [II-210], the IC50 on KRAS (G12V)::SOS1 was found to be 2 nM. With `C[C@H](Oc1cc(-n2ccc(-c3cnccn3)n2)nc(-c2noc3c2CCC[C@@]32CCCc3sc(N)c(C#N)c32)n1)[C@@H]1CCCN1C` [II-130], the 50% inhibitory concentration (IC50) worked out at 1310 nM in the assay with A375 cells and 2 nM on KRAS (G12V)::SOS1. Consider `C[C@H](Oc1cc(-c2cccc(C(N)=O)c2)nc(-c2noc3c2CCC[C@@]32CCCc3sc(N)c(C#N)c32)n1)[C@@H]1CCCN1C` [II-133], for which the IC50 in the assay on A375 cells came to 1380 nM; on KRAS (G12V)::SOS1 it was 2 nM. On to `CO[C@H]1CCN(C)[C@@H]1[C@H](C)Oc1cc(-n2ccc(C(=O)N[C@@H](C)c3ccccn3)n2)nc(-c2noc3c2CCC[C@@]32CCCc3sc(N)c(C#N)c32)n1` [II-196], for which the 50% inhibitory concentration (IC50) on KRAS (G12V)::SOS1 was determined as 2 nM. That is a single-digit nanomolar value. The molecule `C[C@H](Oc1cc(-n2ccc(C3(O)COC3)n2)nc(-c2noc3c2CCC[C@@]32CCCc3sc(N)c(C#N)c32)n1)[C@@H]1CCCN1C` [II-189] returned an IC50 on KRAS (G12V)::SOS1 of 3 nM. For `C[C@H](Oc1cc(-n2cc(-c3cncs3)nn2)nc(-c2noc3c2CCC[C@@]32CCCc3sc(N)c(C#N)c32)n1)[C@@H]1CCCN1C` [II-125], the IC50 in the assay on A375 cells is 324 nM. Take `COCCNC(=O)c1ccn(-c2cc(O[C@@H](C)[C@@H]3CCCN3C)nc(-c3noc4c3CCC[C@@]43CCCc4sc(N)c(C#N)c43)n2)n1` [II-195]: the IC50 at KRAS (G13D)::SOS1 was determined as 7 nM; at KRAS (G12V)::SOS1 it was 1 nM.

As to `C[C@H](Oc1cc(-n2ccc(C(=O)N[C@H]3CCOC3)n2)nc(-c2noc3c2CCC[C@@]32CCCc3sc(N)c(C#N)c32)n1)[C@@H]1CCCN1C` [II-193], the IC50 at KRAS (G13D)::SOS1 worked out at 9 nM; at KRAS (G12V)::SOS1 it was 2 nM. Turning to `C[C@H](Oc1cc(N2CCNC3(CC3)C2)nc(-c2noc3c2CCC[C@@]32CCCc3sc(N)c(C#N)c32)n1)[C@@H]1C[C@@H](F)CN1C` [II-165], the figures for the IC50 on KRAS (G13D)::SOS1 and at KRAS (G12V)::SOS1 were 48 nM and 15 nM, respectively. With `C[C@H](Oc1cc(N2CCOC2=O)nc(-c2noc3c2CCC[C@@]32CCCc3sc(N)c(C#N)c32)n1)[C@@H]1CCCN1C` [II-143], the IC50 with A375 cells is > 3000 nM. As for `C[C@H](Oc1cc(N2CCN(C)C3(COC3)C2)nc(-c2noc3c2CCC[C@@]32CCCc3sc(N)c(C#N)c32)n1)[C@@H]1C[C@@H](F)CN1C` [II-148], at KRAS (G12V)::SOS1, the IC50 amounted to 3 nM.

As to `C[C@H](Oc1cc(-n2ccc(C(=O)N[C@@H]3CCOC3)n2)nc(-c2noc3c2CCC[C@@]32CCCc3sc(N)c(C#N)c32)n1)[C@@H]1CCCN1C` [II-192], the IC50 at KRAS (G13D)::SOS1 amounted to 7 nM; at KRAS (G12V)::SOS1, 1 nM.
